Test results taken from patent EP3875583A1, “GENETIC CASSETTE COMPRISING THE PHT PATHWAY GENES, RECOMBINANT HOST CELLS COMPRISING IT AND THEIR USE IN THE DEGRADATION AND VALORIZATION OF PHTHALATES” (Consejo Superior de Investigaciones Científicas (CSIC), priority 2020, dated 2021).

What was measured:
Format in all cases: cell-based
[1] = tested on: PhtTa-PhtTb TAXI-TRAP transporter; test: [14C]-PA uptake assay in Azoarcus sp. CIB (pIZPHTRAP) cells expressing the transporter; details: for [14C]-PA uptake after pre-incubation with inhibitor: cells pre-incubated 10 min with 1 mM inhibitor before the transport assay; for [14C]-PA uptake rate, % of the rate in the absence of a competitor substrate: 25 µM [14C]-PA
Description: Cells were grown in NB from A600 of 0.1 to A600 of 1.8≈2.0, incubated for 14h, induced by adding 1.0 mM IPTG. Cells were harvested by centrifugation, washed twice in sodium salt and suspended at a cell density of 1090 mg of protein/liter (A600 of 4.0) in sodium salt. […] Phthalate uptake was stopped by diluting the suspensions with 1 mL of ice-cold sodium salt, collecting the cells on a 0.22-µm-pore-size Millipore GSWP nitrocellulose filter, and washing, under suction, the cells with 5 mL of ice-cold sodium salt. The filter was dissolved in 2 ml of scintillation fluid (Cocktail Ready Safe, Beckman) and counted in an LKB Wallac liquid scintillation counter. […]
We have shown above that the phtTa-phtTb transport genes are essential for the anaerobic degradation of PA. To confirm that the phtTa-phtTb genes encode a PA transporter and to determine its biochemical properties, we performed PA uptake experiments at different [^14C]-PA concentrations in Azoarcus sp. […] CIB (pIZPHTRAP), i.e., cells that express the catabolic pht genes as well as the phtTa-phtTb transport genes - the genetic cassette of the invention. […]. […] [^14C]-PA uptake rates were tested in the presence of non-radioactive phthalate isomers as competitors.

[2] = tested on: C. necator H16 (pIZPHTRAP) cells; test: PHB content by GC-MS of the methanolysed polyester, aerobic bioconversion; details: cells grown aerobically on the substance as sole carbon source (3 mM), MC medium, 30°C, stationary phase
A. evansii cells = test: [14C]-PA uptake assay in A. evansii cells grown under nitrate-reducing conditions; details: Aromatoleum evansii; cells grown anaerobically on PA, exposed to 1 mM inhibitor before the [14C]-PA transport assay; read-out: PA transport capacity retained
Description: Cells were grown in NB from A600 of 0.1 to A600 of 1.8≈2.0, incubated for 14h, induced by adding 1.0 mM IPTG. Cells were harvested by centrifugation, washed twice in sodium salt and suspended at a cell density of 1090 mg of protein/liter (A600 of 4.0) in sodium salt. The uptake of radioactive o-phthalate into cells was followed in a reaction mixture containing 50 µL of prewarmed cells (at 30°C for 5 min) and 50 µL of 250 µM [^14C]-o-phthalate. […] Phthalate uptake was stopped by diluting the suspensions with 1 mL of ice-cold sodium salt, collecting the cells on a 0.22-µm-pore-size Millipore GSWP nitrocellulose filter, and washing, under suction, the cells with 5 mL of ice-cold sodium salt. The filter was dissolved in 2 ml of scintillation fluid (Cocktail Ready Safe, Beckman) and counted in an LKB Wallac liquid scintillation counter. […] To test the transporter's specificity the assays were performed according to the standard procedure but adding different unlabeled substrates: o-phthalate (250 mM), isophthalate (250 mM), terephthalate (250 mM).
To study PA transport in denitrifying bacteria expressing the pht peripheral pathway, we used A. evansii cells grown anaerobically in MC medium containing 5 mM benzoate or 5 mM PA. Cells suspended in sodium salt were incubated with 25 µM [^14C]-PA, and a time-course of the amount of [^14C]-PA incorporated into the cells was determined. […]

benA gene = test: real-time RT-PCR gene expression in C. necator H16 (pIZPHTRAP) cells; details: cells grown on 3 mM PA compared with 18 mM pyruvate (control); result in words
Description: (§1) Cupriavidus necator H16 and Azoarcus sp. CIB cells harboring plasmid pIZPHTRAP were grown aerobically on PA-, benzoate- or pyruvate-containing MC medium until the culture reached to the end of the exponential phase. Cells were lysed in TE buffer (10 mM Tris-HCI, pH 7.5, 1 mM EDTA) containing 50 mg ml^-1 lysozyme. Total RNA was extracted using a High Pure RNA isolation kit (Roche), and then it was DNase-treated with a Turbo DNase kit (Ambion). The concentration and purity of the RNA samples were assessed using a Nanophotometer Pearl (Implen) according to the manufacturer's protocols, and by testing the absence of DNA through PCR amplification. Synthesis of total cDNA was performed by using the Transcriptor First Strand cDNA Synthesis kit (Roche) in 20-µl reactions containing 1 µg of RNA, 1 mM concentration of each dNTP, 10 units of reverse transcriptase, 20 units of Protector RNase Inhibitor, and 60 µM random hexamers as primers in the buffer provided by the manufacturer. The RNA and hexamers were initially heated at 65 °C for 10 min and following the addition of the rest of the components, samples were incubated at 25°C for 10 min and then at 55°C for 30 min. Reactions were terminated by incubation at 85°C for 5 min. In standard RT-PCR reactions, the cDNA was amplified with 1 unit of AmpliTaq DNA polymerase (Biotools) and […] concentrations of the corresponding primer pairs of the boxB gene from Azoarcus sp. CIB (Table 2). […] For relative quantification of the fluorescence values, a calibration curve was constructed by sevenfold serial dilutions of a C. necator H16 genomic DNA sample ranging from 1 ng to 0.5 x10-7 ng. […]
(§2) To confirm that C. necator H16 (pIZPHTRAP) was degrading PA via the box pathway, we analyzed the expression of some marker genes of the classical ben-cat pathway, e.g. benA gene, and the hybrid box pathway, e.g., boxB1 (for cluster box1) and boxB2 (for cluster box2) (Fig. 5C). qRT-PCR gene expression studies of C. necator H16 (pIZPHTRAP) cells grown on PA were compared with those of cells grown on pyruvate (control). […]

boxB1 gene = test: as above; details: cells grown on 3 mM PA compared with 18 mM pyruvate (control)
Description: as §1, §2

boxB2 gene = test: as above; details: cells grown on 3 mM PA compared with 18 mM pyruvate (control)
Description: as §1, §2

[3] = tested on: Azoarcus sp. CIB (pIZPHTRAP) strain

O=[N+]([O-])c1ccc(O)c([N+](=O)[O-])c1 [DNP, 2,4-dinitrophenol, reference compound]
[14C]-PA uptake after pre-incubation with inhibitor ([1]; result in words): completely inhibited

O=C(O)c1cccc(C(=O)O)c1 [isophthalate, reference compound]
[14C]-PA uptake rate, % of the rate in the absence of a competitor substrate ([1]; 250 µM unlabeled competitor): 50%

O=C(O)c1ccc(C(=O)O)cc1 [terephthalate, reference compound]
[14C]-PA uptake rate, % of the rate in the absence of a competitor substrate ([1]; 250 µM unlabeled competitor): 60%

O=C(O)c1ccccc1 [benzoate]
PHB accumulated, of the total cell dry weight [2]: 14%

C(=NC1CCCCC1)=NC1CCCCC1 [DCCD, 1,3-dicyclohexylcarbodiimide, reference compound]
[14C]-PA uptake after pre-incubation with inhibitor ([1]; result in words): did not decrease | activity at 1000 µM (A. evansii cells): > 80%

O=C(O)c1ccccc1C(=O)O [PA, o-phthalate]
basal expression of the benA gene (benA gene): similar | fold induction at 3000 µM (boxB1 gene): ~40 | fold induction at 3000 µM (boxB2 gene): ~400 | PHB production efficiency, lower than that of the recombinant C. necator H16 strain [3]: 5 fold | uptake rate of 25 µM [14C]-PA with competitor ([1]; 250 µM unlabeled competitor, result in words): completely inhibited | Km ([1]; Azoarcus sp. CIB (pIZPHTRAP) cells, read-out: transport affinity (Km)): 15 µM | saturation kinetics ([1]; PA concentration at saturation, Azoarcus sp. CIB (pIZPHTRAP) cells): about 20 µM | maximum uptake rate ([1]; [14C]-PA 5 to 25 µM, Azoarcus sp. CIB (pIZPHTRAP) cells): about 156 ± 14 pmol min^-1 mg protein^-1
